This test concerns the target T1, human 11beta-HSD1 (Homo sapiens, UniProt P28845).
T1 construct: expressed in transfected cells; host or cells: HEK293 cells (ATCC CRL-1573), transient transfection with pcDNA3 construct; microsomal fraction used
The test is described as follows: Microsome assay (cortisone to cortisol conversion, ELISA detection). Conditions: microsomes from HEK293 cells transiently expressing human 11beta-HSD1; cortisone 50-200 nM, NADPH 1 mM, 60 min at 37° C.; read-out: h 11-beta-HSD 1 IC50. Format: biochemical. Here is the method:
The cDNA encoding the human 11beta-HSD1 protein was cloned into the expression vector pcDNA3 ([…]). This construct (for details see Alex Odermatt et al.; J Biol Chem., 1999, Vol. 274, Issue 40, 28762-28770) was used to transiently express the protein in HEK293 cells (ATCC number: CRL-1573, described in Graham, F. L., Smiley, J., Russell, W. C., Nairn, R.; (1977)) using lipofectamine. 48h after transfection cells were washed twice with ice-cold PBS (Phosphate buffered Saline). To 1 volume of cell suspension in PBS 2 volumes of ice-cold lysis buffer (50 mM Tris; pH 7.5; 1 mM EDTA; 100 mM NaCl) were added. The cells were lysed by Potter-homogenization (20 strokes). The resulting homogenate was sonicated with a tip sonicator (10% output; 2×30 sec.) and cleared by a low speed centrifugation (10 min×9000 g; 4° C.). The microsomal fraction was collected by a high speed centrifugation (60 min×110,000 g). […]
Microsomes isolated from HEK293 cells transiently expressing human 11beta-HSD1 (for details see above) were incubated in assay buffer (100 mM NaCl; 1 mM EDTA; 1 mM EGTA; 1 mM MgCl; 250 mM Sucrose; 20 mM Tris pH 7.4; Cortisone 50-200 nM and NADPH 1 mM) together with different concentrations of test substances. […] The amount of Cortisol produced in this assay was determined using a commercially available, ELISA-based Cortisol-detection kit (Distributed by Assay Design, Inc.). […]

T1 sequence (P28845 whole entry): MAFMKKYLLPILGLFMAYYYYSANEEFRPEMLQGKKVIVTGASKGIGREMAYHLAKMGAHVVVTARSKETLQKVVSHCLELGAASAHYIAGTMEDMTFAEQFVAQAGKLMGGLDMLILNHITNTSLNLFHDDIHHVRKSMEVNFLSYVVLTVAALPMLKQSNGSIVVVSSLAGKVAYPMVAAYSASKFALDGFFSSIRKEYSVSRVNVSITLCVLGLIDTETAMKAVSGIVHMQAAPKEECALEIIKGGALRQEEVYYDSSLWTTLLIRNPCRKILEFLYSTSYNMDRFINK

For `CC(C)(C)Cc1cc2c(nn1)[C@@]1(C)CC[C@@H]2C1(C)C` [Example 3, (1S,8R)-5-(2,2-Dimethyl-propyl)-1,11,11-trimethyl-3,4-diaza-tricyclo[6.2.1.0^2,7]undeca-2,4,6-triene], the IC50 (in general, the concentration needed to halve the response being measured) worked out at 14 nM.

In the case of `CC(C)(C)Cc1cc2c(nn1)CCCCCC2` [Example 1, 3-(2,2-Dimethyl-propyl)-5,6,7,8,9,10-hexahydro-cycloocta[c]pyridazine], the IC50 is 6 nM.

Values taken from patent publication US7547697B2, “Alkyl-pyridazine derivatives as 11b-HSD1 inhibitors” (Hoffmann-La Roche Inc., priority 2006, dated 2009).
